Experiments:
Eμ-Myc lymphoma cells = assay: Luciferase assay and light microscopy of luciferased lymphoma cells on stromal layer; format: cell-based, mouse
Procedure: For Shh pathway inhibition on stroma, 6200 stroma cells were seeded per 96-well. After 24 hours 20,000 luciferased lymphoma cells were seeded on the stroma cells and 2 hours later compound or DMSO was added. Luciferase assay was performed with Bright-glow reagent as described. To generate cells overexpressing Hh pathway members, lymphoma cells were infected with Smo, Smo 535, Smo 562, Gli1 and Fused-pMSCV IRES GFP constructs and then sorted for GFP positive cells.
In order to investigate whether the Hh signalling pathway does indeed contribute to the survival and proliferation of lymphoma cells growing on an intact stromal layer, lymphoma cells were luciferased using a retrovirus expressing a puromycin/Luc fusion cassette. 2×10E4 lymphoma cells constitutively expressing luciferase were added to each 96-well containing a stromal layer (not expressing luciferase) isolated from Cdkn2a^−/− mice. A total of 34 individual Eμ-Myc-lymphomas and 8 Cdkn2a-lymphomas were tested. A luciferase assay was performed as a readout for cell viability and proliferation and results were also documented by light microscopy.

[1] = test system: lymphoma cells (mixed, B-cell lymphoma, plasmacytoma, plasmoblastoma); assay: Cytokine stimulation of lymphoma cells off stroma, Alamar Blue assay; format: cell-based, mouse; details: 2 days after stroma removal; cytokines 0-50 ng/ml; IL-6: plasmacytomas and mixed, IL-7: B-cell and mixed lymphomas, not plasmoblastomas
Procedure: Luminescence was measured after 0 h, 24 h and 48 h after seeding of 2×10E4 luciferased lymphoma cells on the stroma cells; and F: RT-PCR analysis of transcripts from Hh pathway members and targets in spleen lymphocytes and different lymphoma cell lines.
Cell culture experiments: Lymphoma cells were infected with a retrovirus containing a pMSCV IRES puro-luc sequence and selected for 7 days with puromycin on puromycin-resistant Cdkn2a−/− stroma. […] Both were dissolved as x 1,000 stocks in DMSO. SCF was obtained from RDI, and all other cytokines were obtained from R&D systems. 5E1 anti-ShhN monoclonal antibody was obtained from the developmental hybridoma bank and was used at a concentration of 10 μg/ml. For cytokine stimulation and Shh inhibition in supernatant lymphoma cells were seeded into 96-well plates at a density of 20,000 cells per well and mitochondrial activity of viable cells was measured with an Alamar Blue Assay as described.

IC50 (Eμ-Myc lymphoma cells; most responsive lymphomas, 48 h on stromal layer, read-out: IC50 (concentration needed for 50% of maximal inhibition))	Molecule	luciferase activity (viable lymphoma cells) (Eμ-Myc lymphoma cells; Myc-Ly6, 48 hours, 0, 0.5, 1, 5 and 10 μM)	number of viable lymphoma cells / survival after cytokine stimulation [1]
1000 to 3000 nM	Cc1nn(-c2ccccc2)c(C)c1/C=N/N1CCN(Cc2ccccc2)CC1 [SANT-1]	reduced in a dose dependant manner	
	GM-CSF: cytokine / growth factor		no effect on lymphocyte growth
	IL-6: cytokine / growth factor		enhance survival
	SCF: cytokine / growth factor, obtained from RDI		no effect on lymphocyte growth
	Wnt3a: growth factor (protein, UniProt P56704 19-352, looked up) Protein Wnt-3a: SYPIWWSLAVGPQYSSLGSQPILCASIPGLVPKQLRFCRNYVEIMPSVAEGIKIGIQECQHQFRGRRWNCTTVHDSLAIFGPVLDKATRESAFVHAIASAGVAFAVTRSCAEGTAAICGCSSRHQGSPGKGWKWGGCSEDIEFGGMVSREFADARENRPDARSAMNRHNNEAGRQAIASHMHLKCKCHGLSGSCEVKTCWWSQPDFRAIGDFLKDKYDSASEMVVEKHRESRGWVETLRPRYTYFKVPTERDLVYYEASPNFCEPNPETGSFGTRDRTCNVSSHGIDGCDLLCCGRGHNARAERRREKCRCVFHWCCYVSCQECTRVYDVHTCK		no effect on lymphocyte growth
	IL-7: cytokine / growth factor (protein, UniProt P13232 26-177, looked up) Interleukin-7: DCDIEGKDGKQYESVLMVSIDQLLDSMKEIGSNCLNNEFNFFKRHICDANKEGMFLFRAARKLRQFLKMNSTGDFDLHLLKVSEGTTILLNCTGQVKGRKPAALGEAQPTKSLEENKSLKEQKKLNDLCFLKRLLQEIKTCWNKILMGTKEH		enhance survival
	IL-11: cytokine / growth factor (protein, UniProt P20809 22-199, looked up) Interleukin-11: PGPPPGPPRVSPDPRAELDSTVLLTRSLLADTRQLAAQLRDKFPADGDHNLDSLPTLAMSAGALGALQLPGVLTRLRADLLSYLRHVQWLRRAGGSSLKTLEPELGTLQARLDRLLRRLQLLMSRLALPQPPPDPPAPPLAPPSSAWGGIRAAHAILGGLHLTLDWAVRGLLLLKTRL		no effect on lymphocyte growth

— patent US20110044991A1, “METHODS AND COMPOSITIONS FOR TREATING LYMPHOMA AND MYELOMA” (IRM LLC, priority 2006, published 2011)
